What all share (assay type): functional
Experiment [1] has as its system Enterobacter cloacae. The experiment is described as follows: Antimicrobial activity against Enterobacter cloacae isolate 101 expressing aac(6')-Ib-cr gene.
Experiment [2] deals with Enterobacter cloacae. The experiment is described as follows: Antimicrobial activity against Enterobacter cloacae isolate 37 expressing aac(6')-Ib-cr gene.
Experiment [3] concerns Escherichia coli. In words: Antimicrobial activity against Escherichia coli isolate 17 expressing aac(6')-Ib-cr gene.
Experiment [4] deals with Escherichia coli. In words: Antimicrobial activity against azide-resistant Escherichia coli J53.
Experiment [5] relates to Klebsiella pneumoniae. The experiment is described as follows: Antimicrobial activity against Klebsiella pneumoniae isolate 202 transconjugant expressing aac(6')-Ib-cr gene.
For experiment [6], the system named is Escherichia coli. The experiment is described as follows: Antimicrobial activity against Escherichia coli isolate 48 expressing aac(6')-Ib-cr gene.
For experiment [7], the system named is Klebsiella pneumoniae. In words: Antimicrobial activity against Klebsiella pneumoniae isolate 132 expressing aac(6')-Ib-cr gene.
Experiment [8] concerns Enterobacter cloacae. The experiment is described as follows: Antimicrobial activity against Enterobacter cloacae isolate 37 transconjugant expressing aac(6')-Ib-cr gene.
Experiment [9] deals with Enterobacter cloacae. The experiment is described as follows: Antimicrobial activity against Enterobacter cloacae isolate 153 expressing aac(6')-Ib-cr gene.
Experiment [10] has as its system Klebsiella pneumoniae. The experiment is described as follows: Antimicrobial activity against Klebsiella pneumoniae isolate 135 transconjugant expressing aac(6')-Ib-cr gene.
Experiment [11] relates to Enterobacter cloacae. The experiment is described as follows: Antimicrobial activity against Enterobacter cloacae isolate 101 transconjugant expressing aac(6')-Ib-cr gene.
Experiment [12] deals with Enterobacter cloacae. In words: Antimicrobial activity against Enterobacter cloacae isolate 153 transconjugant expressing aac(6')-Ib-cr gene.
The test system of experiment [13] is Escherichia coli. In words: Antimicrobial activity against Escherichia coli isolate 48 transconjugant expressing aac(6')-Ib-cr gene.
For experiment [14], the system named is Klebsiella pneumoniae. In words: Antimicrobial activity against Klebsiella pneumoniae isolate 202 expressing aac(6')-Ib-cr gene.
The subject of experiment [15] is Escherichia coli. The experiment is described as follows: Antimicrobial activity against Escherichia coli isolate 17 transconjugant expressing aac(6')-Ib-cr gene.
The subject of experiment [16] is Klebsiella pneumoniae. In words: Antimicrobial activity against Klebsiella pneumoniae isolate 135 expressing aac(6')-Ib-cr gene.
Experiment [17] deals with Klebsiella pneumoniae. In words: Antimicrobial activity against Klebsiella pneumoniae isolate 132 transconjugant expressing aac(6')-Ib-cr gene.
Experiment [18] concerns Escherichia coli. In words: Ratio of MIC for Escherichia coli isolate 17 transconjugant to MIC for azide-resistant Escherichia coli […].
The test system of experiment [19] is Escherichia coli. The experiment is described as follows: Ratio of MIC for Escherichia coli isolate 48 transconjugant to MIC for azide-resistant Escherichia coli […].

In brackets after ≈: the same amount, converted by molar mass.

These results are taken from ChEMBL document CHEMBL1649439, “Prevalence of aac(6')-Ib-cr encoding a ciprofloxacin-modifying enzyme among Enterobacteriaceae blood isolates in Korea” (2009).

Regarding `CC(C)(O/N=C(\C(=O)N[C@@H]1C(=O)N2C(C(=O)[O-])=C(C[n+]3ccccc3)CS[C@H]12)c1csc(N)n1)C(=O)O` [CEFTAZIDIME], the MIC was over 32 µg/mL in the experiment with Enterobacter cloacae [1]; 8 µg/mL (≈ 14.6 µM) in the experiment with Enterobacter cloacae [2]; 32 µg/mL (≈ 58.5 µM) against Escherichia coli [3]; 0.25 µg/mL (≈ 0.457 µM) in the experiment on Escherichia coli [4]; 1 µg/mL (≈ 1.83 µM) against Klebsiella pneumoniae [5]; over 32 µg/mL with Escherichia coli [6]. In addition, the MIC against Klebsiella pneumoniae [7] is 32 µg/mL (≈ 58.5 µM); against Enterobacter cloacae [8], 2 µg/mL (≈ 3.66 µM); with Enterobacter cloacae [9] it was over 32 µg/mL; against Klebsiella pneumoniae [10] it was over 32 µg/mL; against Enterobacter cloacae [11] it was 2 µg/mL (≈ 3.66 µM); against Enterobacter cloacae [12], 1 µg/mL (≈ 1.83 µM). Also, the minimum inhibitory concentration (MIC) was over 32 µg/mL against Escherichia coli [13]; over 32 µg/mL against Klebsiella pneumoniae [14]; 16 µg/mL (≈ 29.3 µM) against Escherichia coli [15]; over 32 µg/mL with Klebsiella pneumoniae [16]; 16 µg/mL (≈ 29.3 µM) with Klebsiella pneumoniae [17].
As to `NC[C@H]1O[C@H](O[C@H]2[C@H](O)[C@@H](O[C@H]3O[C@H](CO)[C@@H](O)[C@H](N)[C@H]3O)[C@H](N)C[C@@H]2N)[C@H](N)C[C@@H]1O` [TOBRAMYCIN], the MIC against Enterobacter cloacae [1] is over 16 µg/mL; with Enterobacter cloacae [2] it was over 16 µg/mL; against Escherichia coli [3], over 16 µg/mL; with Escherichia coli [4] it was 0.25 µg/mL (≈ 0.535 µM); against Klebsiella pneumoniae [5], over 16 µg/mL; with Escherichia coli [6], 16 µg/mL (≈ 34.2 µM). Further, the MIC against Klebsiella pneumoniae [7] is over 16 µg/mL; in the experiment with Enterobacter cloacae [8] it was over 16 µg/mL; against Enterobacter cloacae [9], over 16 µg/mL; with Klebsiella pneumoniae [10], over 16 µg/mL; against Enterobacter cloacae [11] it was 2 µg/mL (≈ 4.28 µM); with Enterobacter cloacae [12], over 16 µg/mL. In addition, the MIC with Escherichia coli [13] is 8 µg/mL (≈ 17.1 µM); in the experiment on Klebsiella pneumoniae [14] it was over 16 µg/mL; with Escherichia coli [15], 16 µg/mL (≈ 34.2 µM); against Klebsiella pneumoniae [16], over 16 µg/mL; in the experiment on Klebsiella pneumoniae [17], 16 µg/mL (≈ 34.2 µM).
With `CO/N=C(\C(=O)N[C@@H]1C(=O)N2C(C(=O)O)=C(COC(C)=O)CS[C@H]12)c1csc(N)n1` [CEFOTAXIME], the MIC was 256 µg/mL (≈ 562 µM) in the experiment on Enterobacter cloacae [1]; 128 µg/mL (≈ 281 µM) in the experiment with Enterobacter cloacae [2]; 256 µg/mL (≈ 562 µM) against Escherichia coli [3]; 0.06 µg/mL (≈ 0.132 µM) against Escherichia coli [4]; 16 µg/mL (≈ 35.1 µM) against Klebsiella pneumoniae [5]; over 256 µg/mL in the experiment with Escherichia coli [6]. Also, the MIC with Klebsiella pneumoniae [7] is over 256 µg/mL; against Enterobacter cloacae [8] it was 64 µg/mL (≈ 141 µM); with Enterobacter cloacae [9], 256 µg/mL (≈ 562 µM); in the experiment on Klebsiella pneumoniae [10] it was 256 µg/mL (≈ 562 µM); with Enterobacter cloacae [11] it was 32 µg/mL (≈ 70.3 µM); against Enterobacter cloacae [12], 32 µg/mL (≈ 70.3 µM). For the same compound, the MIC in the experiment on Escherichia coli [13] was over 256 µg/mL; in the experiment on Klebsiella pneumoniae [14] it was over 256 µg/mL; against Escherichia coli [15] it was 256 µg/mL (≈ 562 µM); in the experiment with Klebsiella pneumoniae [16] it was 256 µg/mL (≈ 562 µM); with Klebsiella pneumoniae [17] it was over 256 µg/mL.
For the compound `O=C(O)c1cn(C2CC2)c2cc(N3CCNCC3)c(F)cc2c1=O` [CIPROFLOXACIN], the MIC in the experiment on Escherichia coli [3] is over 16 µg/mL; against Klebsiella pneumoniae [5] it was 0.03 µg/mL (≈ 0.0905 µM); in the experiment on Escherichia coli [6], over 16 µg/mL; in the experiment with Klebsiella pneumoniae [7], 0.125 µg/mL (≈ 0.377 µM); in the experiment with Klebsiella pneumoniae [10], 1 µg/mL (≈ 3.02 µM); in the experiment on Klebsiella pneumoniae [14], over 16 µg/mL. For the same compound, the MIC against Klebsiella pneumoniae [16] was over 16 µg/mL; against Klebsiella pneumoniae [17], 0.03 µg/mL (≈ 0.0905 µM).
Turning to `CCn1cc(C(=O)O)c(=O)c2cc(F)c(N3CCNCC3)cc21` [NORFLOXACIN], the “fold change (FC)” value in the experiment with Escherichia coli [18] and in the experiment with Escherichia coli [19] was 2 throughout. Further, the MIC was over 16 µg/mL in the experiment with Enterobacter cloacae [1]; over 16 µg/mL in the experiment with Enterobacter cloacae [2]; over 16 µg/mL in the experiment on Escherichia coli [3]; 0.06 µg/mL (≈ 0.188 µM) with Escherichia coli [4]; 0.125 µg/mL (≈ 0.391 µM) against Klebsiella pneumoniae [5]; over 16 µg/mL against Escherichia coli [6]. Moreover, the MIC in the experiment on Klebsiella pneumoniae [7] is 0.5 µg/mL (≈ 1.57 µM); in the experiment on Enterobacter cloacae [8] it was 0.25 µg/mL (≈ 0.783 µM); against Enterobacter cloacae [9], over 16 µg/mL; in the experiment with Klebsiella pneumoniae [10] it was 8 µg/mL (≈ 25.1 µM); in the experiment with Enterobacter cloacae [11] it was 0.25 µg/mL (≈ 0.783 µM); against Enterobacter cloacae [12], 0.25 µg/mL (≈ 0.783 µM). Moreover, the MIC is 0.25 µg/mL (≈ 0.783 µM) against Escherichia coli [13]; over 16 µg/mL against Klebsiella pneumoniae [14]; 0.25 µg/mL (≈ 0.783 µM) in the experiment on Escherichia coli [15]; over 16 µg/mL in the experiment on Klebsiella pneumoniae [16]; 0.125 µg/mL (≈ 0.391 µM) against Klebsiella pneumoniae [17].
As to `CCn1cc(C(=O)O)c(=O)c2ccc(C)nc21` [NALIDIXIC ACID], the MIC was over 256 µg/mL with Enterobacter cloacae [1]; over 256 µg/mL against Enterobacter cloacae [2]; over 256 µg/mL in the experiment on Escherichia coli [3]; 8 µg/mL (≈ 34.4 µM) with Escherichia coli [4]; 8 µg/mL (≈ 34.4 µM) in the experiment with Klebsiella pneumoniae [5]; over 256 µg/mL in the experiment with Escherichia coli [6]. Besides, the MIC is 8 µg/mL (≈ 34.4 µM) with Klebsiella pneumoniae [7]; 8 µg/mL (≈ 34.4 µM) with Enterobacter cloacae [8]; over 256 µg/mL with Enterobacter cloacae [9]; 32 µg/mL (≈ 138 µM) against Klebsiella pneumoniae [10]; 8 µg/mL (≈ 34.4 µM) in the experiment on Enterobacter cloacae [11]; 8 µg/mL (≈ 34.4 µM) with Enterobacter cloacae [12]. The MIC is 8 µg/mL (≈ 34.4 µM) in the experiment on Escherichia coli [13]; over 256 µg/mL in the experiment on Klebsiella pneumoniae [14]; 8 µg/mL (≈ 34.4 µM) with Escherichia coli [15]; over 256 µg/mL against Klebsiella pneumoniae [16]; 8 µg/mL (≈ 34.4 µM) in the experiment with Klebsiella pneumoniae [17].
Turning to GENTAMICIN, the MIC against Enterobacter cloacae [1] is over 32 µg/mL; with Enterobacter cloacae [2], over 32 µg/mL; with Escherichia coli [3], over 32 µg/mL; in the experiment on Escherichia coli [4], 0.25 µg/mL; against Klebsiella pneumoniae [5] it was over 32 µg/mL; with Escherichia coli [6] it was 0.25 µg/mL. The MIC is over 32 µg/mL in the experiment on Klebsiella pneumoniae [7]; over 32 µg/mL against Enterobacter cloacae [8]; over 32 µg/mL in the experiment on Enterobacter cloacae [9]; over 32 µg/mL with Klebsiella pneumoniae [10]; 0.25 µg/mL in the experiment with Enterobacter cloacae [11]; over 32 µg/mL with Enterobacter cloacae [12]. Moreover, the MIC with Escherichia coli [13] is 0.25 µg/mL; in the experiment on Klebsiella pneumoniae [14], over 32 µg/mL; against Escherichia coli [15], 32 µg/mL; against Klebsiella pneumoniae [16] it was over 32 µg/mL; in the experiment with Klebsiella pneumoniae [17], 32 µg/mL.
`COc1c(N2C[C@@H]3CCCN[C@@H]3C2)c(F)cc2c(=O)c(C(=O)O)cn(C3CC3)c12` [MOXIFLOXACIN]: the MIC is over 16 µg/mL with Escherichia coli [3]; 0.06 µg/mL (≈ 0.149 µM) against Klebsiella pneumoniae [5]; 0.125 µg/mL (≈ 0.311 µM) against Klebsiella pneumoniae [7]; 1 µg/mL (≈ 2.49 µM) against Klebsiella pneumoniae [10]; 16 µg/mL (≈ 39.9 µM) in the experiment with Klebsiella pneumoniae [14]; over 16 µg/mL in the experiment on Klebsiella pneumoniae [16]. In the experiment with Klebsiella pneumoniae [17], this compound displayed a minimum inhibitory concentration (MIC) of 0.06 µg/mL (≈ 0.149 µM).
